From patent US9266817B2, “Catecholamine derivatives for obesity and neurological disorders” (EMORY UNIVERSITY, priority 2009, dated 2016)

Tests used:
[1] = biological target: TrkC (Homo sapiens, UniProt Q16288); conditions: transfected HEK293 cells
Procedure: (§1) To determine whether catecholamines bind TrkB directly, an in vitro binding assay was conducted with purified ECD (extracellular domain) and ICD (intracellular domain) proteins from Trk receptors and ^3H-catecholamines. […] To determine whether the binding by catecholamines to TrkB receptor caused dimerization, GST-TrkB was co-transfected into HEK293 cells with HA-TrkB, followed by BDNF or monoamines treatment for 15 minutes.

[2] = biological target: TrkA (Homo sapiens, UniProt P04629); conditions: transfected HEK293 cells
Procedure: as §1

[3] = biological target: T1, TrkB (Homo sapiens, UniProt Q16620); assay: Activation of transfected TrkB in HEK293 cells with or without DAT or NET; format: cell-based; parameters: expressed in transfected cells; host or cells: HEK293; conditions: NET transfected HEK293 cells
Target sequence in this assay (Q16620 32-822, species assumed): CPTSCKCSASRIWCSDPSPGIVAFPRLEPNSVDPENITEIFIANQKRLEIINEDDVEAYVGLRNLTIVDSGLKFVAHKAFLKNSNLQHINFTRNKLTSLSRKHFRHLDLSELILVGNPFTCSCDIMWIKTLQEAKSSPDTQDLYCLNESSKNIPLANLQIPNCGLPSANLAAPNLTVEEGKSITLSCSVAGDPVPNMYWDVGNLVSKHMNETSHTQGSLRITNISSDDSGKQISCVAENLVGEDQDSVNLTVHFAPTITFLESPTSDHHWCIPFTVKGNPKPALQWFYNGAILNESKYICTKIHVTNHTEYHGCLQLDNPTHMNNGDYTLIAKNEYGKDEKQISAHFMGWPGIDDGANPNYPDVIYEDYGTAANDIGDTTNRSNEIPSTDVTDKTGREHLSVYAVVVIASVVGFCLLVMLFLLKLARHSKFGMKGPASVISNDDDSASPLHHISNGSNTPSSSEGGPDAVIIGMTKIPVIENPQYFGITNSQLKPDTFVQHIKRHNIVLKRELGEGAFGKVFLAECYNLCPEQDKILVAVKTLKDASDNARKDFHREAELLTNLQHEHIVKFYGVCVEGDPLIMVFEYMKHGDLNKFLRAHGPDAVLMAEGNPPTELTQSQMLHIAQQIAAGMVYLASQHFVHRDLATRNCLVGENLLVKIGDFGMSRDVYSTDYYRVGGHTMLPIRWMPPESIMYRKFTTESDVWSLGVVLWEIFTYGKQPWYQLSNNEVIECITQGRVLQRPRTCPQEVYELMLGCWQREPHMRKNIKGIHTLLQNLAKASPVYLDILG

[4] = biological target: T2, TrkB intracellular domain (ICD) (Homo sapiens, UniProt Q16620); assay: In vitro binding assay with purified TrkB ICD and 3H-ligands (Scatchard plot)
T2 construct: purified ECD (extracellular domain) and ICD (intracellular domain) proteins from Trk receptors
Procedure: (§2) Purified TrkA and TrkB ECD or ICD proteins were incubated with different ^3H-catecholamines at 25° C. for 30 minutes in 1 ml of binding buffer (50 mM Tris-HCl, pH 7.4, 100 mM NaCl, 5 nM ^3H-catecholamines (32000 cpm)). After the incubation, the reaction mixture was loaded on a Whatman glass-fiber filter (GF-B) (Whatman Inc.; Piscataway, N.J.). The mixture was washed with 3×5 ml washing buffer (50 mM Tris-HCl, pH 7.4). The dried filter paper was put into a small vial and subjected to liquid scintillation counter analysis. The value of the dissociate constant and the number of sites were obtained from Scatchard plots by using the equation r/[L]free =n/Kd−r/Kd, where r is the ratio of the concentration of bound ligand to the total protein concentration and n is the number of binding sites.
as §1

[5] = biological target: T3, TrkB (Mus musculus, UniProt P15209); format: cell-based, mice; conditions: compared to wild-type control neurons
T3 construct: endogenous in cells; host or cells: primary cortical neurons from BDNF-null, TrkB +/- cross, TrkC knockout and NET -/- mice
Procedure: (§3) It was then determined whether catecholamines could activate TrkB in neurons cultured from mice carrying a null mutation of NET.

[6] = biological target: T1, TrkB; assay: Tyrosine phosphorylation of TrkB in transfected HEK293 cells; format: cell-based; parameters: expressed in transfected cells; host or cells: HEK293
Procedure: as §1
Target sequence in this assay (Q16620 32-822, species assumed): as above

[7] = biological target: T4, TrkB (Mus musculus, UniProt P15209, F616A); format: in vivo; conditions: 1NMPP1 50 μM; for TrkB tyrosine phosphorylation/activation in mice: L-DOPA 50 mg/kg, DOPS 100 mg/kg
T4 construct: from tissue; host or cells: mouse brain
Procedure: The DOPS concentration was 20 mg/ml, the vitamin C concentration was 2 mg/ml, and the benserazide concentration was 5 mg/ml. The vitamin C prevents oxidation of the DOPS, and the benserazide is a peripheral inhibitor of AADC and restricts the production of NE from DOPS to the brain. The compounds were added to a tube, and 20 μl of 10 M HCl was added to each ml of DOPS solution. The appropriate amount of water was added to the tube, and then HCl was added to achieve the desired volume. For example, to make 1 mL of a DOPS solution, 20 mg DOPS, 2 mg vitamin C, and 5 mg benserazide were added to a tube, followed by 980 μL of water and 20 μL of 10 M HCl. The solution was vortexed until all DOPS was dissolved. The DOPS solution was injected subcutaneously in a volume of 50 μl/g of mouse. The appropriate amount of DOPS solution was pipetted into a clean tube, followed by the amount of 10 M NaOH required to exactly neutralize the HCl. The solution was then shaken. The amount of 10 M NaOH is the weight of the mouse in microliters. For example, for a 20 g mouse, pipet 1 ml of the DOPS solution is pipetted into a tube and 20 μL of 10 M NaOH is added. For a 30 g mouse, 1.5 mL of the DOPS solution is pipetted into a tube and 30 μl of 10 M NaOH is added. Two to four month-old TrkBF616A mice were pretreated with 1NMPP1 in drinking water (50 μM) 1 day before L-DOPA (50 mg/kg) or DOPS (100 mg/kg) intraperitoneal injection. At times of 2 hours and 5 hours after drug administration, the L-DOPA or DOPS-treated mice were sacrificed, respectively. The brain lysates were prepared and analyzed by immunoblotting against anti-phospho-TrkB Y816 and TrkA Y794 antibodies.
(§4) TrkB F616A mice were pretreated with 1NMPP1 (50 μM) before L-DOPA or DOPS administration.

[8] = test system: TrkB F616A cortical neurons; assay: Glutamate-provoked apoptosis of TrkB F616A cortical neurons (TUNEL assay); format: cell-based, mice; parameters: Effect of inhibitor on protective action of norepinephrine: dose or concentration left out as unconfirmed; conditions: glutamate overnight
Procedure: Norepinephrine has neuroprotective activity against oxidative stress-induced neuronal apoptosis. To investigate whether this protective action by norepinephrine is mediated through TrkB, apoptosis of TrkB F616A cortical neurons was monitored. Primary cortical neurons were pretreated with inhibitors K252a or 1NMPP1 followed by overnight treatment with 50 mM glutamate.

[9] = test system: mice; assay: Forced swim test; format: in vivo; conditions: TrkB F616A knockin mice
Procedure: Accumulating evidence supports that BDNF plays an essential role in mediating antidepressants' therapeutic effects. Infusion of exogenous BDNF into hippocampus or brain stem has antidepressant-like behavioral effect. A forced swim test is broadly used for screening of potential antidepressant drugs and is widely used to measure antidepressant activity. To explore whether Compound I-11 (ADPP) and Compound I-8 (DDAP) have antidepressant effects like BDNF, forced swim tests were conducted. Adult male mice (2-3 months old, n=8) were randomly submitted, without a pre-swim, to a forced swim test of 6 minutes with immobility recorded in the last 4 minutes. Mice were injected intraperitoneally with saline, Compound I-11 (20 mg/kg), or Compound I-8 (20 mg/kg). The mice were allowed to adapt to the test room for 2 days, and the mice were placed in a clear glass cylinder with a diameter of 16 cm, half-filled with clear water at 24° C.
To assess whether the behavior responses caused by catecholamine derivatives is mediated by TrkB receptor, TrkB F616A knockin mice were utilized. The mice were subjected to saline or 1NMPP1 inhibitor pretreatment.

[10] = test system: TrkB F616A knockin mice; assay: Kainic acid-induced neuronal apoptosis in TrkB F616A knockin mice (immunoblotting and Caspase-3 ELISA); format: in vivo; conditions: 1NMPP1 16.6 ng/kg 2 days before
Procedure: To determine whether Compound I-11 (ADPP) and Compound I-8 (DDAP) protect neurons from KA-induced apoptosis, TrkB F616A knockin mice were pretreated with inhibitor 1NMPP1 (16.6 ng/kg) 2 days before the experiment. Compound I-8 (DDAP) or Compound I-11 (ADPP) (50 mg/kg) was orally injected into the mice 2 hours before kainic acid (KA) administration (20 mg/kg). Brain lysates were analyzed by immunoblotting and Caspase-3 ELISA. […] The extent of the protective effect correlates with TrkB activation status by these compounds. Active Caspase-3 ELISA correlated with the immunoblotting results (FIG. 28B, right panel).

[11] = biological target: T5, TrkB F616A (Mus musculus, UniProt P15209); assay: TrkB phosphorylation in TrkB F616A or TrkA F592A cortical neurons pretreated with K252a or 1NMPP1; format: cell-based, mice; conditions: TrkA F592A neurons
T5 construct: endogenous in cells; host or cells: primary cortical neurons from TrkB F616A knock-in mice
Procedure: as §4
(§5) On day 7, the primary cortical neurons were pretreated with 100 nM K252a or 1NMPP1 for 30 min, followed by 500 nM ADPP and DDAP. Cell lysates were analyzed by Western blotting.

[12] = biological target: T6, TrkB F616A (Mus musculus, UniProt P15209, F616A); assay: as above; format: cell-based, mice; conditions: TrkB F616A knock-in cortical neurons
T6 construct: endogenous in cells; host or cells: primary cortical neurons from TrkB F616A knock-in mice
Procedure: as §4, §5

[13] = biological target: T7, TrkB extracellular domain (ECD) (Homo sapiens, UniProt Q16620); assay: In vitro binding assay with purified TrkB ECD and 3H-ligands; conditions: purified ECD, 3H-ligand
T7 construct: purified ECD (extracellular domain) and ICD (intracellular domain) proteins from Trk receptors
Procedure: as §2, §1

[14] = biological target: T8, TrkB (Rattus norvegicus, UniProt Q63604); assay: TrkB activation in cortical neurons after pretreatment with antibodies, receptor antagonists, transporter inhibitors or EDTA (anti-p-TrkB-Y-816 immunoblot); format: cell-based; conditions: BDNF-IgG 30 minutes, then BDNF 10 ng/ml or catecholamines 100 nM, 15 minutes
T8 construct: endogenous in cells; host or cells: primary rat cortical and hippocampal neurons
From the text: (§6) Both antidepressants and exercise increase hippocampal BDNF mRNA expression through enhanced 5-HT and/or NE neurotransmission (Siuciak et al., Pharmacol. Biochem. Behav., 56:131-137, 1997; Dias et al., Neuropharmacology, 45:553-563, 2003; Ivy et al., Pharmacol. Biochem. Behav., 75:81-88, 2003; Garza et al., Pharmacol. Biochem. Behav., 77:209-220, 2004). If catecholamines activated TrkB signaling indirectly by promoting BDNF generation, then scavenging BDNF with its specific antibody would be expected to diminish catecholamines-mediated activation of TrkB. Cultured cortical neurons were pretreated with BDNF-IgG for 30 minutes followed by exposure to BDNF (10 ng/ml) or catecholamines (100 nM) for 15 minutes. […] It was then determined whether catecholamines could activate TrkB in neurons cultured from mice carrying a null mutation of BDNF.
To further investigate the specificity of catecholamines in inducing TrkB activation, cortical neurons were pretreated with control IgG or norepinephrine IgG, a rabbit polyclonal antibody for norepinephrine, followed by catecholamines.
as §3
(§7) The cell lysates were analyzed by immunoblotting with anti-p-TrkB-Y-816.
as §7
A group of primary cortical neurons were pretreated with 1 mM EDTA, and another group of primary cortical neurons were not pretreated. Both groups of primary cortical neurons were then treated with either Zn (100 μM) or a catecholamine (100 nM) for 15 minutes. The neuronal cell lysates were analyzed by immunoblotting with anti-p-TrkB-Y-816 antibody.

[15] = biological target: T3, TrkB; assay: TrkB activation in cortical neurons cultured from BDNF-null mice; format: cell-based; conditions: 15 min
From the text: as §6

[16] = biological target: T8, TrkB; assay: Immunofluorescent staining with anti-phospho-TrkB Y816 in primary hippocampal neurons; format: cell-based; conditions: 300 nM, 30 min
Procedure: Primary Rat Cortical and Hippocampal Neuron Cultures
Primary hippocampal neurons were seeded on poly-L-lysine coated coverslips in a 12-well plate. After 7 days in vitro, the neurons were treated with 100 ng/ml BDNF or variety of neurotransmitters and 7,8-dihydroxyflavone compound (500 nM) for 30 min, and then washed with PBS. Cells were fixed with 3% formaldehyde in PBS at room temperature for 15 min. The cells were then permeabilized and blocked by 0.4% Triton X-100 and 2% FBS in PBS at room temperature for 15 minutes, washed with PBS three times and treated with anti-MAP2 (1:200) and anti-phospho-TrkB antibodies (1:100). After staining with FITC- or Rhodamine-conjugated secondary antibody, the coverslips were mounted on slides. Fluorescent images were taken by OLYMPUS IX71 fluorescence microscope (Olympus; Center Valley, Pa.).
To explore whether monoamine neurotransmitters, including catecholamines (see, e.g., FIG. 1), could stimulate TrkB activation, hippocampal neurons were treated with 300 nM of catecholamines, serotonin, and melatonin for 30 min.

[17] = biological target: T1, TrkB; assay: TrkB dimerization, co-immunoprecipitation of GST-TrkB and HA-TrkB in HEK293 cells; format: cell-based; parameters: GST; HA; expressed in transfected cells; host or cells: HEK293; conditions: 15 minutes
Procedure: as §1
Target sequence in this assay (Q16620 32-822, species assumed): as above
Target sequence in this assay (Q16620 32-822, species assumed): as above

T3 sequence (P15209 32-821): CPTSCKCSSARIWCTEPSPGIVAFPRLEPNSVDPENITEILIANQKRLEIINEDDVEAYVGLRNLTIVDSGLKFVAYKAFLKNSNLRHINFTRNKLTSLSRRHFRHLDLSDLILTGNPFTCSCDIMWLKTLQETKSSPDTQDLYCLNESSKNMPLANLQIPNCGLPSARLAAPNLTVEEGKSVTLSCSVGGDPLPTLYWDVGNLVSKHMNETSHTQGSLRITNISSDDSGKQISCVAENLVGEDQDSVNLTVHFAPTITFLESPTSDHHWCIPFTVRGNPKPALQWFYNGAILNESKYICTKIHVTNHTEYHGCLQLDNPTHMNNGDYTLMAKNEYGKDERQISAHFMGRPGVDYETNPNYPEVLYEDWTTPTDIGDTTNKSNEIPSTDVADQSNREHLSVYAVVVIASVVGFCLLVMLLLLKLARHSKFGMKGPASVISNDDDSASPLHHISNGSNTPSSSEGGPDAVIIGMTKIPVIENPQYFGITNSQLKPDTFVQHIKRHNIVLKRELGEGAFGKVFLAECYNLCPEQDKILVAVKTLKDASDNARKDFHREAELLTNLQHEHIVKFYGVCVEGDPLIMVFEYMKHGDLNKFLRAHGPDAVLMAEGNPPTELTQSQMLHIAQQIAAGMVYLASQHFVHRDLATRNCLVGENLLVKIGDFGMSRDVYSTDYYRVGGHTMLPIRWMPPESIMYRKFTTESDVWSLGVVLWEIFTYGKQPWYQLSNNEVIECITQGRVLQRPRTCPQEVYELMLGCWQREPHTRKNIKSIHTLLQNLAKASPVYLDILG
T8 sequence (Q63604 32-821): as the sequence (P15209 32-821) above, with T3M, S9T, A10T, V32I, R63K, S84G, M153T, L185I, S394T, S770N counted along it
T4 sequence (P15209 32-821 F616A): as the sequence (P15209 32-821) above, with F585A counted along it
T2 sequence (Q16620 455-822 limits assumed): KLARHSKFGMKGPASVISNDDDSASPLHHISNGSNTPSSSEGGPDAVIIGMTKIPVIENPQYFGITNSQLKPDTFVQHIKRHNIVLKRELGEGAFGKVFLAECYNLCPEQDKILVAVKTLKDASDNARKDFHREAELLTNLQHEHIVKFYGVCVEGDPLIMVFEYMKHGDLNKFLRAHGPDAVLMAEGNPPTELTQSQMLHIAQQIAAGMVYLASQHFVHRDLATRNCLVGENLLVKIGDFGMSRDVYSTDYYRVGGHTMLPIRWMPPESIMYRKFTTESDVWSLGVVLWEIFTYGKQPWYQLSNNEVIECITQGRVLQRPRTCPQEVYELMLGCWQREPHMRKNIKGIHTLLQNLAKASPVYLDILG
T7 sequence (Q16620 32-430 limits assumed): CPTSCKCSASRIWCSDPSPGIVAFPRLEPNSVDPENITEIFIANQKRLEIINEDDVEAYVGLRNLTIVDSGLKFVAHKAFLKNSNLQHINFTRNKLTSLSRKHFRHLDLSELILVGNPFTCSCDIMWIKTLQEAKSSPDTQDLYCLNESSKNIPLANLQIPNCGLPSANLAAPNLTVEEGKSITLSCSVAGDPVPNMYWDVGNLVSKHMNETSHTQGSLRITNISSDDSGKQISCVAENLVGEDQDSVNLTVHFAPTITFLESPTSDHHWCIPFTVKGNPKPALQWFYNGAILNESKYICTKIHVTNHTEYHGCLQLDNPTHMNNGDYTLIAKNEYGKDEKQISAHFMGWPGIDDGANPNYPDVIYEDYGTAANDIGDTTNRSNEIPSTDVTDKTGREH
Sequence of TrkC (Q16288 32-839, species assumed): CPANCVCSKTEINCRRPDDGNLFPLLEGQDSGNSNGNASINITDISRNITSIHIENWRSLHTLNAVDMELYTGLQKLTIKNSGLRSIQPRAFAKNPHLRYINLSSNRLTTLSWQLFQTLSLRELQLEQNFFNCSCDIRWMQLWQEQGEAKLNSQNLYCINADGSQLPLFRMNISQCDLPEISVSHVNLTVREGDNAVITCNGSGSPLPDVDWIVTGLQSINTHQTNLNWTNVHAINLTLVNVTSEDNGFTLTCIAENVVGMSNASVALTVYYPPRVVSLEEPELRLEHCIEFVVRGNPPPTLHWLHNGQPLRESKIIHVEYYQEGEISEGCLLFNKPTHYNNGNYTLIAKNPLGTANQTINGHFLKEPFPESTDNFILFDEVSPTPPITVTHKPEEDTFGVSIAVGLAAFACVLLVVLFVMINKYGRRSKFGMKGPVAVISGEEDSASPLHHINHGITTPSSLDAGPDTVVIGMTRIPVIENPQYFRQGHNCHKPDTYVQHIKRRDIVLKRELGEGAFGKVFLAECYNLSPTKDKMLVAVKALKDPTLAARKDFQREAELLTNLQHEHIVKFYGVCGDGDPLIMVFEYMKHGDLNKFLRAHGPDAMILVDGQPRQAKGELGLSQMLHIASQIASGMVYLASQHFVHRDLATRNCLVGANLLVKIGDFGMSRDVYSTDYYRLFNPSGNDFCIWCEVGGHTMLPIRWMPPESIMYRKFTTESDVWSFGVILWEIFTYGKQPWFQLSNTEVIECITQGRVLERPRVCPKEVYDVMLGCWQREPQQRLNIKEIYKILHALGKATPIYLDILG
Sequence of TrkA (P04629 33-796, species assumed): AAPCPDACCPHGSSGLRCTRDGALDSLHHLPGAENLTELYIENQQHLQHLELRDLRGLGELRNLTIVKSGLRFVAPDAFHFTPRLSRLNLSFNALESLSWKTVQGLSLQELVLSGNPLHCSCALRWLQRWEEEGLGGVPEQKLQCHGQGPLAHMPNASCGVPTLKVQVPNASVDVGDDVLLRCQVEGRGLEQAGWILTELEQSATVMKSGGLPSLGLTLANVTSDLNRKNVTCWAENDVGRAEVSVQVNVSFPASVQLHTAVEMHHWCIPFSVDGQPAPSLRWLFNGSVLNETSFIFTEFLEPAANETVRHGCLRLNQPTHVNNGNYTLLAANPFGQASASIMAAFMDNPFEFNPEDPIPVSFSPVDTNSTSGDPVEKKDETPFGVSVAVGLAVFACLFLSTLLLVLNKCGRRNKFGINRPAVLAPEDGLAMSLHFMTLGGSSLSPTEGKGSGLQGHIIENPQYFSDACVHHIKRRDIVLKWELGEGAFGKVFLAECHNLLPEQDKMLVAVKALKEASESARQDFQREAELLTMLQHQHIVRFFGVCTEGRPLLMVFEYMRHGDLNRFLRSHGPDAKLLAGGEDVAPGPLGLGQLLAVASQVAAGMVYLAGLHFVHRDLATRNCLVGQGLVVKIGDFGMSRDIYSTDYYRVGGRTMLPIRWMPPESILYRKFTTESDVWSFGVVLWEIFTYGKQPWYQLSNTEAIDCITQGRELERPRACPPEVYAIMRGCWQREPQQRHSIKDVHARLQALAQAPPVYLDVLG
T5 sequence (P15209 32-821 F616A): as the sequence (P15209 32-821) above, with F585A counted along it
T6 sequence (P15209 32-821 F616A): as the sequence (P15209 32-821) above, with F585A counted along it

CNC[C@H](O)c1ccc(O)c(O)c1 [epinephrine]
Tyrosine phosphorylation of TrkC [1]: but not in TrkA or TrkC
Tyrosine phosphorylation of TrkA [2]: but not in TrkA
Increase of stimulatory activity by overexpression of NET compared to control cells [3]: approximately 100 fold
Binding to ICD of TrkB receptor ([4]; purified ICD, 3H-ligand): strongest binding activity
Kd ([4]; purified protein, 25° C., 30 minutes, read-out: TrkB binding constants (Scatchard plot)): 1100 nM
TrkB activation in NET -/- neurons [5]: completely blocked
Tyrosine phosphorylation of TrkB [6]: elicited tyrosine phosphorylation

CC(C)(C)n1nc(Cc2cccc3ccccc23)c2c(N)ncnc21 [Compound 1NMPP1]
TrkB tyrosine phosphorylation/activation in mice [7]: had no effect
Effect of 1NMPP1 pretreatment on TrkB activation by 7,8-dihydroxyflavone, L-DOPA and DOPS ([7]; TrkB F616A mice): markedly diminished TrkB activation
Effect of inhibitor on protective action of norepinephrine [8]: abolished
Immobility times, 1NMPP1 versus saline treated control groups [9]: No significant difference
Effect of 1NMPP1 pretreatment on protective effect of Compounds I-8 and I-11 [10]: blocked the protective effect
Effect of inhibitor on catecholamine-induced TrkB activation [11]: but not by 1NMPP1
Effect of inhibitor on catecholamine-provoked TrkB phosphorylation [12]: selectively reduced

O=c1cc(-c2ccccc2)oc2c(O)c(O)ccc12 [7,8-dihydroxyflavone]
Binding to ECD of TrkB receptor [13]: selectively bound
TrkB tyrosine phosphorylation/activation in mice [7]: provoked evident TrkB activation
Effect of BDNF-IgG pretreatment on phosphorylation of TrkB induced by the substance [14]: had no effect
Activation of TrkB in BDNF-null cortical neurons [15]: evident activation of TrkB

B1: BDNF: Brain-derived neurotrophic factor, natural ligand of TrkB (protein, UniProt P23560 19-247, looked up)
Neurotrophic factor BDNF …: APMKEANIRGQGGLAYPGVRTHGTLESVNGPKAGSRGLTSLADTFEHVIEELLDEDQKVRPNEENNKDADLYTSRVMLSSQVPLEPPLLFLLEEYKNYLDAANMSMRVRRHSDPARRGELSVCDSISEWVTAADKKTAVDMSGGTVTVLEKVPVSKGQLKQYFYETKCNPMGYTKEGCRGIDKRHWNSQCRTTQSYVRALTMDSKKRIGWRFIRIDTSCVCTLTIKRGR
TrkB tyrosine phosphorylation (immunofluorescent staining) [16]: strongly triggered TrkB tyrosine phosphorylation
Effect of BDNF-IgG pretreatment on phosphorylation of TrkB induced by the substance [14]: abolished
Activation of TrkB in BDNF-null cortical neurons [15]: evident activation of TrkB
TrkB homodimerization [17]: elicited TrkB homodimerization
